Data from ChEMBL document CHEMBL2401712, “Fused thiazolyl alkynes as potent mGlu5 receptor positive allosteric modulators” (Bioorg Med Chem Lett, 2013).

What was measured:
Liver microsomes [1] = assay: Intrinsic clearance in rat liver microsomes; format: ADME, Microsome
[2] = biological target: T1, Metabotropic glutamate receptor 5 (Homo sapiens, UniProt P41594); assay: Negative allosteric modulation of human mGlu5 receptor expressed in HEK293 cells assessed as inhibition of L-glutamate-induced activity after 1 hr by FLIPR assay; format: cell-based
Target sequence in this assay (P41594 whole entry): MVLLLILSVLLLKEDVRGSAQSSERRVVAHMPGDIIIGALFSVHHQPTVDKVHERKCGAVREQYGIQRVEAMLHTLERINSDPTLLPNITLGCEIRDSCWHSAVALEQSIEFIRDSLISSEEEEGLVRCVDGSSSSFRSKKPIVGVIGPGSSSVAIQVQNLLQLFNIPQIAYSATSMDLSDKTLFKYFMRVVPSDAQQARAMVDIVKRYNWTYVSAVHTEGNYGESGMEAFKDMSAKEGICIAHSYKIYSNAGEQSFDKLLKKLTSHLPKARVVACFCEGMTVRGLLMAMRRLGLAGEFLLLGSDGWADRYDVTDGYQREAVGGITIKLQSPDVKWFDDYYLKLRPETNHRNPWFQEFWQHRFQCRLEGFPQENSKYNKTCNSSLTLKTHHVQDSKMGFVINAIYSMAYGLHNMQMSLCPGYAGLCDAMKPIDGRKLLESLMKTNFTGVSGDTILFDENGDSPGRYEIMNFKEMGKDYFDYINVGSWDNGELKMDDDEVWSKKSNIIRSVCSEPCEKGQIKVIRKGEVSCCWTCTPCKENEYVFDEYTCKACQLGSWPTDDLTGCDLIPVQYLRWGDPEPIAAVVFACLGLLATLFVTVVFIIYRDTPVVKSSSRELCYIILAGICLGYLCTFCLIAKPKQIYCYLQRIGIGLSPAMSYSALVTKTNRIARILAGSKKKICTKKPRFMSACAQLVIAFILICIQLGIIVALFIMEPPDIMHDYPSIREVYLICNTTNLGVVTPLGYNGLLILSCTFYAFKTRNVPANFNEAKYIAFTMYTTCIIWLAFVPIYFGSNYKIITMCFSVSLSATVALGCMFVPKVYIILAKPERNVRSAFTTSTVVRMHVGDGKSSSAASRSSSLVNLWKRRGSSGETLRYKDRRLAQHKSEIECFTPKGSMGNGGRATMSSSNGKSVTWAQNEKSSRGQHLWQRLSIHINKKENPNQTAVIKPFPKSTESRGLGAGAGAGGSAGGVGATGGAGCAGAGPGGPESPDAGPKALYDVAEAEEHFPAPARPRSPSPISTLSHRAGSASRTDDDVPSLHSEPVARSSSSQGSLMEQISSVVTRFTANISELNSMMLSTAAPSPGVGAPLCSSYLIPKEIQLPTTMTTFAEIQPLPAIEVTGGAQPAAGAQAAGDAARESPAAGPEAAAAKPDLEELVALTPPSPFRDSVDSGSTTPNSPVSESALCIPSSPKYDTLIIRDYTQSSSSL

[3] = biological target: T1, Metabotropic glutamate receptor 5; assay: Positive allosteric modulation of human mGlu5 receptor expressed in HEK293 cells assessed as potentiation of L-glutamate-induced activity after 1 hr by FLIPR assay; format: cell-based
Target sequence in this assay (P41594 whole entry): as above

Liver microsomes [4] = assay: Metabolic stability in human liver microsomes assessed as GSH adduct formation after 60 mins by LC-MS/MS analysis; format: ADME, Microsome; details: 1 h
[5] = Plasma protein binding in human; format: ADME, cell-free; details: read-out: PPB (converted)
CYP2D6 = CYP2D6 (Homo sapiens, UniProt P10635); assay: Inhibition of CYP2D6 (unknown origin) at 5 uM relative to control; format: ADME
CYP2D6, sequence (P10635 whole entry): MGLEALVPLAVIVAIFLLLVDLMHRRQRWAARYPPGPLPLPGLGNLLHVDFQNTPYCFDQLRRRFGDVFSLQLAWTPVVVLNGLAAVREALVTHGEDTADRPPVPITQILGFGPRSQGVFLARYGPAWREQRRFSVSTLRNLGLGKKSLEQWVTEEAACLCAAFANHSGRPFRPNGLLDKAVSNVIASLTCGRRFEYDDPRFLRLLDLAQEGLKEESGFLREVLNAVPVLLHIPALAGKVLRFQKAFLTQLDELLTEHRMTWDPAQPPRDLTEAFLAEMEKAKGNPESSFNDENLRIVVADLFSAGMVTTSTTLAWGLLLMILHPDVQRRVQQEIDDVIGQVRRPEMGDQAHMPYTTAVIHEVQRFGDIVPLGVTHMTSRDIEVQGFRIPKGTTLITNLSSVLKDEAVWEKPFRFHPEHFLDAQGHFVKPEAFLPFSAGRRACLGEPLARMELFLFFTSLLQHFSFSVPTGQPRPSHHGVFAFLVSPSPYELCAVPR

[6] = Plasma protein binding in rat; format: ADME, cell-free; details: read-out: PPB (converted)
CYP3A4 = CYP3A4 (Homo sapiens, UniProt P08684); assay: Inhibition of CYP3A4 (unknown origin) at 5 uM relative to control; format: ADME
CYP3A4, sequence (P08684 whole entry): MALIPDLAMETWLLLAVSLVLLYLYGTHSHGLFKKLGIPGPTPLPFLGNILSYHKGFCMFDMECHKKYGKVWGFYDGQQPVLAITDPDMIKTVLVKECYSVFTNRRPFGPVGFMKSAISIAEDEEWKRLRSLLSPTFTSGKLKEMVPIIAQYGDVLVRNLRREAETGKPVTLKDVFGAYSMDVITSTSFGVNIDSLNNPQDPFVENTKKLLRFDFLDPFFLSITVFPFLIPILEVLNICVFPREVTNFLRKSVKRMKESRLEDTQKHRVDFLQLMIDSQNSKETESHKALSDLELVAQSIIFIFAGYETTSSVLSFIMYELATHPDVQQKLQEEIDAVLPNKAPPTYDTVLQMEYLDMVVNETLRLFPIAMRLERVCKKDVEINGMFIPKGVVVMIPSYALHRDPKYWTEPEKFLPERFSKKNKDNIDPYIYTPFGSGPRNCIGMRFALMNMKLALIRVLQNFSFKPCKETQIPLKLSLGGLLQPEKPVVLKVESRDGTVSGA

Liver microsomes [7] = assay: Intrinsic clearance in human liver microsomes; format: ADME, Microsome; parameters: unit not given here
[8] = biological target: T1, Metabotropic glutamate receptor 5; assay: Positive allosteric modulation of human mGlu5 receptor expressed in HEK293 cells assessed as potentiation of L-glutamate-induced activity after 1 hr by FLIPR assay relative to control; format: cell-based
Target sequence in this assay (P41594 21-1212 limits assumed): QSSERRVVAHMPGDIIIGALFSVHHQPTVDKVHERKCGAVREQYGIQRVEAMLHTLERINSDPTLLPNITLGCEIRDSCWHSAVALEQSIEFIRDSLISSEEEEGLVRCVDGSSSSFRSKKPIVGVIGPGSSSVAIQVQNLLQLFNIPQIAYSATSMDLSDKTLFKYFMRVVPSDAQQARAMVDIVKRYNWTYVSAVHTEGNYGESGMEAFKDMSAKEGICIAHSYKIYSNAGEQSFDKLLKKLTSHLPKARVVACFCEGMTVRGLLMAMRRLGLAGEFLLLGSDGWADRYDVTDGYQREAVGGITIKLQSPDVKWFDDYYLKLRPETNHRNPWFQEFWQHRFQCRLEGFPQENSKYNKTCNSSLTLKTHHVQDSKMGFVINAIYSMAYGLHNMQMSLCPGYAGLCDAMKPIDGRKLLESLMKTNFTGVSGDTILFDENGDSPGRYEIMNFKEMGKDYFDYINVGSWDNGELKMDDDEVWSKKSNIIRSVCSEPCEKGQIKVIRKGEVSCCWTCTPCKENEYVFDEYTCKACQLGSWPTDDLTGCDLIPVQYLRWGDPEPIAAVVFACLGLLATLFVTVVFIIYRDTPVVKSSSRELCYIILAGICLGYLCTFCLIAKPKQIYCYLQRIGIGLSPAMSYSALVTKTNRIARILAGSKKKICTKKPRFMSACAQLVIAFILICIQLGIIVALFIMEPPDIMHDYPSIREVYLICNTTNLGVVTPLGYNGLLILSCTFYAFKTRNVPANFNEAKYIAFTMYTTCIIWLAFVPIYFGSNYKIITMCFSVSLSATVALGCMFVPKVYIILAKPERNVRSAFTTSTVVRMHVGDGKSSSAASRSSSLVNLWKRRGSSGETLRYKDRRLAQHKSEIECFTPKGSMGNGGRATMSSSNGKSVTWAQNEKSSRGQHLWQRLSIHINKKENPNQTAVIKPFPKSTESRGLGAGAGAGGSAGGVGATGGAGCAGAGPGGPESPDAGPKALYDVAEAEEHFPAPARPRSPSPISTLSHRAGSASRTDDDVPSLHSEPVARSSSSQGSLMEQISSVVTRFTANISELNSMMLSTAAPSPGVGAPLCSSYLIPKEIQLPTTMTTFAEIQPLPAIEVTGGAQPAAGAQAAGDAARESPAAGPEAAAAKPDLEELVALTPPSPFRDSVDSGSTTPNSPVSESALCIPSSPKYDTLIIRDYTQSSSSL

[9] = biological target: T1, Metabotropic glutamate receptor 5; assay: Negative allosteric modulation of human mGlu5 receptor expressed in HEK293 cells assessed as inhibition of L-glutamate-induced activity after 1 hr by FLIPR assay relative to control; format: cell-based; parameters: concentration or dose not given beside the values; details: concentration not given here
Target sequence in this assay (P41594 21-1212 limits assumed): as above

[10] = biological target: T1, Metabotropic glutamate receptor 5; assay: Positive allosteric modulation of mGlu5 receptor (unknown origin) relative to control
Target sequence in this assay (P41594 21-1212 limits assumed): as above

[11] = biological target: T1, Metabotropic glutamate receptor 5; assay: Positive allosteric modulation of mGlu5 receptor (unknown origin)
Target sequence in this assay (P41594 whole entry): as the sequence (P41594 whole entry) above

| CLH (Liver microsomes [1]) | IC50 [2] | EC50 [3] | Stability (Liver microsomes [4]) | fraction unbound [5] | inhibition at 5 µM (CYP2D6) | fraction unbound [6] | inhibition at 5 µM (CYP3A4) | CLH (Liver microsomes [7]) | Emax [8] | inhibition [9] | Emax [10] | EC50 [11] | SMILES |
| --- | --- | --- | --- | --- | --- | --- | --- | --- | --- | --- | --- | --- | --- |
| 52 mL/min | > 10 µM | 0.0024 µM | Unstable | 0.033 | < 40% | 0.049 | < 40% | 3.1 | 180% |  |  |  | CN1CCc2nc(C#Cc3ccccc3)sc2C1=O |
| 7.6 mL/min | > 10 µM | 0.018 µM | Stable | 0.011 | < 40% | 0.012 | < 40% | 1.1 | 89% | 52% |  |  | O=C(C1CC(F)(F)C1)N1CCc2nc(C#Cc3ccccc3)sc2C1 |
| 88 mL/min | > 10 µM | 0.034 µM | Stable | 0.035 | < 40% | 0.061 | < 40% | 4.9 | 110% |  |  |  | CN1CCc2nc(C#Cc3ccccc3)sc2C1 |
|  | 0.034 µM | > 10 µM |  |  |  |  |  |  | -12% | 87% |  |  | O=S(=O)(C1CC1)N1CCc2nc(C#Cc3ccccc3)sc2C1 |
|  | 0.072 µM | > 10 µM |  |  |  |  |  |  | -2% | 87% |  |  | CCN1CCc2nc(C#Cc3cccc(F)c3)sc2C1 |
|  | 0.038 µM | > 10 µM |  |  |  |  |  |  | -17% | 79% |  |  | CCC(=O)N1CCc2nc(C#Cc3ccccc3)sc2C1 |
|  | 0.37 µM | > 10 µM |  |  |  |  |  |  | 3% | 81% |  |  | O=C(C1CCC1)N1CCc2nc(C#Cc3ccccc3)sc2C1 |
|  | 0.0057 µM | > 10 µM |  |  |  |  |  |  | -6% | 71% |  |  | CN(C)S(=O)(=O)N1CCc2nc(C#Cc3ccccc3)sc2C1 |
|  | > 10 µM | 0.19 µM |  |  |  |  |  |  | 80% | 0% |  |  | CC1CCC(C(=O)N2CCc3nc(C#Cc4ccccc4)sc3C2)CC1 (centres undefined) |
|  | > 10 µM | > 10 µM |  |  |  |  |  |  | 19% | 1% |  |  | C(#Cc1nc2c(s1)CN(C1CCCCC1)CC2)c1ccccc1 |
|  | 0.65 µM | > 10 µM |  |  |  |  |  |  | -48% | 94% |  |  | CC(C)CN1CCc2nc(C#Cc3ccccc3)sc2C1 |
|  | > 10 µM | 0.026 µM |  |  |  |  |  |  | 94% | -9% |  |  | O=C(N1CCc2nc(C#Cc3ccccc3)sc2C1)N1CC(F)(F)C1 |
|  | 0.29 µM | > 10 µM |  |  |  |  |  |  | -13% | 61% |  |  | O=C(C1CC1)N1CCc2nc(C#Cc3ccccc3)sc2C1 |

Continued, molecule first:

| SMILES | CLH (Liver microsomes [1]) | IC50 [2] | EC50 [3] | Stability (Liver microsomes [4]) | fraction unbound [5] | inhibition at 5 µM (CYP2D6) | fraction unbound [6] | inhibition at 5 µM (CYP3A4) | CLH (Liver microsomes [7]) | Emax [8] | inhibition [9] | Emax [10] | EC50 [11] |
| --- | --- | --- | --- | --- | --- | --- | --- | --- | --- | --- | --- | --- | --- |
| N#Cc1cccc(C(=O)N2CCc3nc(C#Cc4ccccc4)sc3C2)c1 |  | > 10 µM | 0.071 µM |  |  |  |  |  |  | 150% | 16% |  |  |
| O=C(c1cnc(C#Cc2ccccc2)s1)N1CCCCC1 |  |  |  | Unstable |  |  |  |  |  |  |  | 167% | 0.0061 µM |
| O=C(N1CCCC1)N1CCc2nc(C#Cc3ccccc3)sc2C1 | 49 mL/min | > 10 µM | 0.0098 µM |  | 0.024 | < 40% | 0.047 | < 40% | 1 | 180% |  |  |  |
| CC1CC(C(=O)N2CCc3nc(C#Cc4cccc(F)c4)sc3C2)C1 (centres undefined) |  | > 10 µM | 0.017 µM |  |  |  |  |  |  | 87% | 19% |  |  |
| O=S(=O)(N1CCCC1)N1CCc2nc(C#Cc3ccccc3)sc2C1 |  | 0.036 µM | > 10 µM |  |  |  |  |  |  | -9% | 78% |  |  |
| O=C(C1CC(F)(F)C1)N1CCc2nc(C#Cc3ccc(F)cc3)sc2C1 |  | > 10 µM | 0.15 µM |  |  |  |  |  |  | 73% | 13% |  |  |
| O=C(C1CCC(F)(F)CC1)N1CCc2nc(C#Cc3ccccc3)sc2C1 |  | > 10 µM | 0.07 µM |  |  |  |  |  |  | 190% | 10% |  |  |
| CC1CCCC(C(=O)N2CCc3nc(C#Cc4ccccc4)sc3C2)C1 (centres undefined) |  | > 10 µM | 0.1 µM |  |  |  |  |  |  | 260% | 20% |  |  |
| O=C(c1cccc(C(F)(F)F)c1)N1CCc2nc(C#Cc3ccccc3)sc2C1 |  | > 10 µM | 0.011 µM |  |  |  |  |  |  | 170% | 12% |  |  |
| O=C(C1CCCC1)N1CCc2nc(C#Cc3ccccc3)sc2C1 |  | > 10 µM | 0.019 µM |  |  |  |  |  |  | 280% | 42% |  |  |
| O=S(=O)(N1CCOCC1)N1CCc2nc(C#Cc3ccccc3)sc2C1 |  | 0.013 µM | > 10 µM |  |  |  |  |  |  | 1.5% | 89% |  |  |
